Data on 25 molecules can be found in patent US10167272B2, “Muscarinic agonists” (Heptares Therapeutics Limited, priority 2015, dated 2019).

The structures appear in SMILES notation. Where two headings read alike, the source gives them in different places. Some results are limits rather than exact numbers.

Assay [1] addresses T1, human muscarinic M1 receptor (Homo sapiens, UniProt P11229).
T1 sequence (P11229 1-460): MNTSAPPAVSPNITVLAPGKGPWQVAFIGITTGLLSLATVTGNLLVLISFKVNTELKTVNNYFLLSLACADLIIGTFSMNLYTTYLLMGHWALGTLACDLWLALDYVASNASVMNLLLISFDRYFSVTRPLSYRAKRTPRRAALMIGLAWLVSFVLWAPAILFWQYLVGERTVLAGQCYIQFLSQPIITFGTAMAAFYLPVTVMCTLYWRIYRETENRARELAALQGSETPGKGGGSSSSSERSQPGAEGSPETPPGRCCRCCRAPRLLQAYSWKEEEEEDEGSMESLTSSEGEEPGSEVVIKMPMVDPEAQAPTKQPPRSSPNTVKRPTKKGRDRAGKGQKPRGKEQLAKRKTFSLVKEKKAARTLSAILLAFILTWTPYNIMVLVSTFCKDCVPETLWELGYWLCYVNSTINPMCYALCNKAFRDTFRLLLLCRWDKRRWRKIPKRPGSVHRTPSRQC
The assay is described as follows: Alphascreen Surefire phospho-ERK1/2 functional assay, M1. In kind it is cell-based. Conditions: for EC50: read-out: pEC50 M1 (converted); for Emax: CHO. On the procedure:
ERK1/2 phosphorylation is a downstream consequence of both Gq/11 and Gi/o protein coupled receptor activation, making it highly suitable for the assessment of M1, M3 (Gq/11 coupled) and M2, M4 receptors (Gi/o coupled), rather than using different assay formats for different receptor subtypes. CHO cells stably expressing the human muscarinic M1, M2, M3 or M4 receptor were plated (25K/well) onto 96-well tissue culture plates in MEM-alpha+10% dialysed FBS. Once adhered, cells were serum-starved overnight. Agonist stimulation was performed by the addition of 5 μL agonist to the cells for 5 min (37° C.). Media was removed and 50 μL of lysis buffer added. After 15 min, a 4 μL sample was transferred to 384-well plate and 7 μL of detection mixture added.

The target of assay [2] is T2, human muscarinic M4 receptor (Homo sapiens, UniProt P08173).
T2 construct: expressed in transfected cells
T2 sequence (P08173 1-479): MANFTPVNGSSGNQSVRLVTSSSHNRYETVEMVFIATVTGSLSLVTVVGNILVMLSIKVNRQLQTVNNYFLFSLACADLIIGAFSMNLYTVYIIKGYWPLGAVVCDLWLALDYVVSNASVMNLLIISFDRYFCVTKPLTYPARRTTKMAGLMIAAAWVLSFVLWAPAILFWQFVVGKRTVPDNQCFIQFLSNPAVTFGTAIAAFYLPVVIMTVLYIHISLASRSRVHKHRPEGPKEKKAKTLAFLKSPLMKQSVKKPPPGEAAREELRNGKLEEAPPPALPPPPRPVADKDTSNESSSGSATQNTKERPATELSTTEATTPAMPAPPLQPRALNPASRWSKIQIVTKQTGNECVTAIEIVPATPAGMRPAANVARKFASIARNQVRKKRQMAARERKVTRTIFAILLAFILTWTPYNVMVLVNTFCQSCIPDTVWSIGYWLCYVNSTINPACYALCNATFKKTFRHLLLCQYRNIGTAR
Nature of the assay: Alphascreen Surefire phospho-ERK1/2 functional assay, M4. It counts as cell-based. Conditions: for EC50: read-out: pEC50 M4 (converted); for Emax: CHO. A general note: In Alpha technology, singlet oxygen from a donor bead excites a nearby acceptor bead.

Where [3] appears, read: CHO cells stably expressing human M1, phospho-ERK1/2.
[4] abbreviates: read-out: % Emax cf. ACh (M1), CHO cells stably expressing human M1, phospho-ERK1/2, relative to ACh.
[5] abbreviates: CHO cells stably expressing human M4, phospho-ERK1/2.
Where [6] appears, read: read-out: % Emax cf. ACh (M4), CHO cells stably expressing human M4, phospho-ERK1/2, relative to ACh.
Where [7] appears, read: CHO cells stably expressing human M1, phospho-ERK1/2, relative to ACh.
The mark [8] stands for this setting: CHO cells stably expressing human M4, phospho-ERK1/2, relative to ACh.

As to `CCOC(=O)N1CC2(CC(N3CCC(N(C(C)=O)C4CC4)CC3)C2)C1` [Example 1-1], the EC50 in assay [1] (setting [3]) was 2510 nM; in assay [2] (setting [5]), 316 nM. Besides, the Emax worked out at 72% in assay [1] (setting [4]) and 77% in assay [2] (setting [6]).
For `CCOC(=O)N1CCC2(CC(N3CCC(N(CC)CCS(C)(=O)=O)CC3)C2)C1` (single isomer, unassigned) [2-56 Isomer 2] the same measures were greater than 20000 nM, 1260 nM, 7% and 41%.
For the molecule `CCN(C(C)=O)C1CCN(C2CC3(CCN(C(=O)OC)C3)C2)CC1` (single isomer, unassigned) [2-17 Isomer 1], the EC50 is greater than 20000 nM in assay [1] (setting [3]) and 1260 nM in assay [2] (setting [5]). For the same molecule, the “% Emax cf. ACh (M1)” value in assay [1] (setting [7]) is on record as 27%. For the same molecule, the Emax in assay [2] (setting [6]) worked out at 87%.
As for `CCOC(=O)N1CCC2(CC(N3CCC(N(CCO)c4ccccc4)CC3)C2)C1` (single isomer, unassigned) [2-58 Isomer 2], the EC50 was 1260 nM in assay [1] (setting [3]) and 251 nM in assay [2] (setting [5]). Further, the maximal response (Emax) in assay [1] (read-out: % Emax cf. ACh (M1)) was 63%; in assay [2] (read-out: % Emax cf. ACh (M4)), 74%.
With `CCOC(=O)N1CCC2(CC(N3CCC(N(CC4(OC)CCC4)C(C)=O)CC3)C2)C1` (single isomer, unassigned) [2-30 Isomer 1], the values for the EC50 in assay [1] (setting [3]) and in assay [2] (setting [5]) were 1260 nM and 126 nM, respectively. Besides, the “% Emax cf. ACh (M1)” value in assay [1] (setting [7]) came to 33%. Moreover, the “% Emax cf. ACh (M4)” value in assay [2] (setting [8]) came out at 59%.
Turning to `CCOC(=O)N1CCC2(CC(N3CCC(N(CC(C)(F)F)C(C)=O)CC3)C2)C1` (single isomer, unassigned) [2-27 Isomer 2], the EC50 is 631 nM in assay [1] (setting [3]) and 79.4 nM in assay [2] (setting [5]). For the same molecule, the Emax came out at 108% in assay [1] (setting [4]) and 105% in assay [2] (setting [6]).
Turning to `CCOC(=O)N1CCC2(CC(N3CCC(N(CC4(C)CCC4)C(C)=O)CC3)C2)C1` (single isomer, unassigned) [2-21 Isomer 1], the EC50 was 15800 nM in assay [1] (setting [3]) and 316 nM in assay [2] (setting [5]). The “% Emax cf. ACh (M1)” value in assay [1] (setting [7]) is 51%.
Consider `CCOC(=O)N1CCC2(CC(N3CCC(N(C(C)=O)C4(C)CCC4)CC3)C2)C1` (single isomer, unassigned) [2-22 Isomer 2], for which the EC50 in assay [1] (setting [3]) is 316 nM; in assay [2] (setting [5]), 79.4 nM. Further, the Emax was determined as 132% in assay [1] (setting [4]) and 139% in assay [2] (setting [6]).
`CCOC(=O)N1CCC2(CC(N3CCC(N(CC(C)(C)F)C(C)=O)CC3)C2)C1` (single isomer, unassigned) [2-26 Isomer 1]: the EC50 in assay [1] (setting [3]) is greater than 20000 nM; in assay [2] (setting [5]), 1000 nM. Further, in assay [1] (setting [7]), the “% Emax cf. ACh (M1)” value was 23%. Also, the “% Emax cf. ACh (M4)” value in assay [2] (setting [8]) is 52%.
On to `CCOC(=O)N1CCC2(CC(N3CCC(N(CC4(C)COC4)C(C)=O)CC3)C2)C1` (single isomer, unassigned) [2-23 Isomer 2], for which the EC50 in assay [1] (setting [3]) was 1260 nM; in assay [2] (setting [5]) it was 631 nM. Also, the Emax in assay [1] (setting [4]) is 43%; in assay [2] (setting [6]) it was 65%.
The matching figures for `CCCN(C(C)=O)C1CCN(C2CC3(CCN(C(=O)OCC)C3)C2)CC1` (single isomer, unassigned) [2-18 Isomer 2]: 2000 nM, 200 nM, 89% and 107%.
The matching figures for `CCOC(=O)N1CCC2(CC(N3CCC(N(C(C)=O)C4CC(F)(F)C4)CC3)C2)C1` (single isomer, unassigned) [2-28 Isomer 2]: 158 nM, 251 nM, 124% and 80%.
`CCOC(=O)N1CCC2(CC(N3CCC(N(C(C)=O)C4CC4)CC3)C2)C1` (single isomer, unassigned) [2-3 Isomer 1]: the EC50 in assay [1] (setting [3]) is 2000 nM; in assay [2] (setting [5]), greater than 20000 nM. Moreover, the Emax in assay [1] (setting [4]) turned out to be 78%. The “% Emax cf. ACh (M4)” value in assay [2] (setting [8]) came to 13%.
As to `CCOC(=O)N1CC2(CC(N3CCC(N(CC)C(C)=O)CC3)C2)C1` [Example 1-2, Ethyl 6-{4-[acetyl(ethyl)amino]piperidin-1-yl}-2-azaspiro[3.3]heptane-2-carboxylate], the EC50 is 6310 nM in assay [1] (setting [3]) and 251 nM in assay [2] (setting [5]). Besides, the figures for the Emax in assay [1] (setting [4]) and in assay [2] (setting [6]) were 59% and 103%, respectively.
With `CCOC(=O)N1CCC2(CC(N3CCC(N(CC(C)C)C(C)=O)CC3)C2)C1` (single isomer, unassigned) [2-19 Isomer 1], the values for the EC50 in assay [1] (setting [3]) and in assay [2] (setting [5]) were 1260 nM and 251 nM, respectively. Also, in assay [1] (setting [7]), the “% Emax cf. ACh (M1)” value is on record as 32%. Also, the “% Emax cf. ACh (M4)” value in assay [2] (setting [8]) was found to be 62%.
As to `CCOC(=O)N1CCC2(CC(N3CCC(N(CCO)C4CCC4)CC3)C2)C1` (single isomer, unassigned) [2-50 Isomer 2], the values for the EC50 in assay [1] (setting [3]) and in assay [2] (setting [5]) were greater than 20000 nM and 251 nM, respectively. The Emax in assay [1] (setting [4]) is 17%; in assay [2] (setting [6]), 70%.
`CCOC(=O)N1CCC2(CC(N3CCC(N(CC)C(=O)N(C)C)CC3)C2)C1` (single isomer, unassigned) [Example 2-44 Isomer 2]: the figures for the EC50 in assay [1] (setting [3]) and in assay [2] (setting [5]) were 2510 nM and 398 nM, respectively. The values for the Emax in assay [1] (setting [4]) and in assay [2] (setting [6]) were 55% and 80%, respectively.
`CCN(C(C)=O)C1CCN(C2CC3(CCN(C(=O)OC)C3)C2)CC1` (single isomer, unassigned) [2-17 Isomer 2]: the results for the EC50 in assay [1] (setting [3]) and in assay [2] (setting [5]) were 1260 nM and 200 nM, respectively. Further, the “% Emax cf. ACh (M1)” value in assay [1] (setting [7]) came to 80%. The “% Emax cf. ACh (M4)” value in assay [2] (setting [8]) came out at 92%.
Consider `CCOC(=O)N1CCC2(CC(N3CCC(N(CCO)C4CC4)CC3)C2)C1` (single isomer, unassigned) [2-49 Isomer 2], for which the EC50 was greater than 20000 nM in assay [1] (setting [3]) and 1260 nM in assay [2] (setting [5]). Moreover, the Emax in assay [1] (setting [4]) was found to be 8%; in assay [2] (setting [6]), 78%.
For `CCOC(=O)N1CCC2(CC(N3CCC(N(CC)C4COC4)CC3)C2)C1` (single isomer, unassigned) [2-53 Isomer 2] the same measures were greater than 20000 nM, 251 nM, 42% and 62%.
For `CCOC(=O)N1CCC2(CC(N3CCC(N(CC(F)(F)F)C(C)=O)CC3)C2)C1` (single isomer, unassigned) [2-25 Isomer 2] the same measures were 3980 nM, 100 nM, 125% and 101%.
On to `CCOC(=O)N1CCC2(CC(N3CCC(N(CC(C)(C)F)C(C)=O)CC3)C2)C1` (single isomer, unassigned) [2-26 Isomer 2], for which the EC50 in assay [1] (setting [3]) was 398 nM; in assay [2] (setting [5]) it was 63.1 nM. Also, the “% Emax cf. ACh (M1)” value in assay [1] (setting [7]) turned out to be 109%. In addition, the “% Emax cf. ACh (M4)” value in assay [2] (setting [8]) was 114%.
`CCOC(=O)N1CCC2(CC(N3CCC(CN(C(C)=O)C4CC4)CC3)C2)C1` (single isomer, unassigned) [2-12 Isomer 2]: the “pEC50 M1” value in assay [1] (setting [3]) is listed as less than 4.7. The “% Emax cf. ACh (M1)” value in assay [1] (setting [7]) is given as 6%. In addition, the “pEC50 M4” value in assay [2] (setting [5]) is recorded as 6.7. The “% Emax cf. ACh (M4)” value in assay [2] (setting [8]) is recorded as 41%.
Consider `CCOC(=O)N1CCC2(CC(N3CCC(N(CC(F)(F)F)C(=O)OCCOC)CC3)C2)C1` (single isomer, unassigned) [2-43 Isomer 2], for which the figures for the EC50 in assay [1] (setting [3]) and in assay [2] (setting [5]) were 2510 nM and 126 nM, respectively. In addition, the maximum response (Emax) in assay [1] (setting [4]) was determined as 35%; in assay [2] (setting [6]) it was 91%.
As to `CCOC(=O)N1CCC2(CC(N3CCC(N(CC(C)(C)OC)C(C)=O)CC3)C2)C1` (single isomer, unassigned) [2-29 Isomer 1], the EC50 in assay [1] (setting [3]) is greater than 20000 nM; in assay [2] (setting [5]), 1260 nM. Further, the “% Emax cf. ACh (M1)” value in assay [1] (setting [7]) is 17%. Also, the “% Emax cf. ACh (M4)” value in assay [2] (setting [8]) is 56%.

As a reminder, the Emax is the greatest response seen or fitted, relative to the assay's reference.
